Measurements: US20150071856A1, “ANTAGONISTIC PEPTIDES FOR FRIZZLED-1 AND FRIZZLED-2” (Universiteit Maastricht, priority 2013, published 2015)
Each block holds one compound with its values, some of them ahead of it. Positions of bridges follow the written chain, without caps; N, C: chain ends. Residues, ends and D or L forms follow the SMILES beside them. rhodamine = not defined here

How the values were obtained:
canonical Wnt signaling = experiment: Activity assay (Example 1): TOPflash luciferase reporter in HEK (HEK293-superTOPflash) cells, receptor not specified; type: cell-based, human; conditions: for effect of the peptide by itself on luciferase activity: without Wnt3a; for activity on the frizzled receptor: antagonist or agonist: model of Example 1
Procedure: (§1) Human embryonic kidney (HEK) cells were used for screening. These cells have a luciferase construct stably transfected into the genome (see FIG. 2A), such that when the frizzled receptor is activated and β-catenin is increased, the luciferase is activated by transcription and light can be measured.
(§2) The peptides were tested by transfecting the frizzled-1 or the frizzled-2 receptor and addition of UM206(S-S) to the cell culture. For testing antagonistic activity, UM206 was added and the natural ligand Wnt3a was added, which is a natural stimulus for the canonical pathway.
Transfection and Luciferase Measurement:
Plate cells in 12-well plates
(§3) Day 2: Transfection 12-Well Plates • heat Fugene6 and DNA 15 minutes at RT • 2 ml serum-free medium in tube • add 3 μl fugene • add 2 μg DNA • incubate 30 minutes at RT • wash with PBS • add 50 μl transfectiemix • add 1 ml antibiotica-free medium
(§4) Day 3: Add Conditioned Medium or UM206
(§5) Day 4: Luciferase Activity Measurements • remove medium • wash with PBS • add 500 μl ⅕ lysisbuffer • shake for 60 minutes • centrifuge in tube • 20 μl lysaat and 50 μl luciferase in new tube for measurement • vortex • measure
(§6) Three areas of high homology that contained two cysteines are underlined (UM207), (UM208) and (UM206). In FIGS. 9B through 9D, the inhibitory effect of these three peptides on Wnt3a-induced luciferase activity in HEK293-superTOPflash is shown. […] Again, the peptides by themselves had no effect on the luciferase activity.
(§7) The cell lines were cultured in 75 cm^2 culture flasks (Corning, Schiphol, the Netherlands) in Dulbeco's modified essential medium with L-glutamine (2 mM), 10% fetal calf serum (Invitrogen, Merelbeke, Belgium), and 1% gentamycin (Sigma-Aldrich, Zwijndrecht, The Netherlands). Before starting the experiment, the cell lines were treated with plasmocin 25 μg/ml (Invivogen, Toulose, France) and tested with a mycoalert mycoplasma detection kit (Lonza, Rockland Me., USA). Cells were transiently transfected with Fugene6 (Roche, Indianapolis Ind., USA) with plasmid DNA, pcDNA3.1/hygro (Invitrogen) with frizzled-1/2/4 or Wnts 3a-5a or with pcDNA3.0 (Invitrogen) containing the β-catenin or frizzled-5 sequence. After transfection, the cells were cultured for 24 hours in conditioned medium, collected from the cultured L-cells, L-cells with Wnt3a or 5a (Invitrogen). At the same moment the antagonist was added.
For the luciferase experiments not in HEK cells, the cells were additionally transfected with a TOPflash construct, eight TCF/LEF binding sites cloned into the pTA-Luc vector. Luciferase activity was measured using luciferase assay system (Promega, Madison Wis., USA).

frizzled-2 (rFzd-2) = molecular target: T1, frizzled-2 (rFzd-2) (Rattus norvegicus, UniProt Q08464); experiment: Activity assay: luciferase reporter in HEK superTOPflash cells transfected with frizzled-2; type: cell-based; conditions: for block of Wnt3a-induced luciferase activity, rFzd-2: peptide 1.10^−8 M
T1 construct: expressed in transfected cells; host or cells: HEK293 superTOPflash (transient, Fugene6, pcDNA3.1/hygro)
T1 sequence (Q08464 29-570): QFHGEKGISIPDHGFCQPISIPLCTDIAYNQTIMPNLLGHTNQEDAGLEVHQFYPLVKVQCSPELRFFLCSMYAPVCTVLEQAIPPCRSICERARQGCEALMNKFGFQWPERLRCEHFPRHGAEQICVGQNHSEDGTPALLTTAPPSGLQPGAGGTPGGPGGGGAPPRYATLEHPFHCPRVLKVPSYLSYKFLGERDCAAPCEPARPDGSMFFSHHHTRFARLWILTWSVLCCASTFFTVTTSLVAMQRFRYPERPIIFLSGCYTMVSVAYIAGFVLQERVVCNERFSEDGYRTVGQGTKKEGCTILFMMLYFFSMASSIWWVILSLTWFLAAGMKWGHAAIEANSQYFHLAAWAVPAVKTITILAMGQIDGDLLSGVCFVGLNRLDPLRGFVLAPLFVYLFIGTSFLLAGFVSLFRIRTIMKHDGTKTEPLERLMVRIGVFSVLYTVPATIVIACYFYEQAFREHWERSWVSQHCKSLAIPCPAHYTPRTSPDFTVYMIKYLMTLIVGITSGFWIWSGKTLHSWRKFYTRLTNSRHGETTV
Procedure: as §1, §2, §3, §4, §5, §6
(§8) To determine the inhibitory constant of UM206-8, HEK293-superTOPflash cells were transfected with either rFzd-1 or -2 and incubated with Wnt3a (10^−9M) in the presence of increasing concentrations of either of the peptides (FIG. 15). For UM206, a biphasic inhibition curve was observed that was best fitted with a two-binding-state model.
as §7

frizzled-1 (rFzd-1) = molecular target: T2, frizzled-1 (rFzd-1) (Rattus norvegicus, UniProt Q08463); experiment: Activity assay: luciferase reporter in HEK superTOPflash cells transfected with frizzled-1; type: cell-based; conditions: for block of Wnt3a-induced luciferase activity, rFzd-1: peptide 1.10^−8 M
T2 construct: expressed in transfected cells; host or cells: HEK293 superTOPflash (transient, Fugene6, pcDNA3.1/hygro)
T2 sequence (Q08463 69-641): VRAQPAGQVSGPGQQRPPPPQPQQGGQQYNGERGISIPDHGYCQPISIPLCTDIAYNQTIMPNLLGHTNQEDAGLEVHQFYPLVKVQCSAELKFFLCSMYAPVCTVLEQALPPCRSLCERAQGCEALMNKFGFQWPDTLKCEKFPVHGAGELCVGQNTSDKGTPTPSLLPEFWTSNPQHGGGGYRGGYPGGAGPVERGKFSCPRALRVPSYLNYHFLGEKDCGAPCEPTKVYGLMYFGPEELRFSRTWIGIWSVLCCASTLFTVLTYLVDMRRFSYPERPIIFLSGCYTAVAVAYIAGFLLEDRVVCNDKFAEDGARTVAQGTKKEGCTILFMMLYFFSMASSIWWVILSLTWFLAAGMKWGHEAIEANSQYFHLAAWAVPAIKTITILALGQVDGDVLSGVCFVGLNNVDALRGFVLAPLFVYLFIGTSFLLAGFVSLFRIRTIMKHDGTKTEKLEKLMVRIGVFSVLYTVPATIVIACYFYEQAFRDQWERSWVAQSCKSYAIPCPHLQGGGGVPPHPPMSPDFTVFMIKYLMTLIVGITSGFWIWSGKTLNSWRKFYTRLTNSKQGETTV
Procedure: as §1, §2, §3, §4, §5, §6, §8, §7

Fzd-1 and -2 = experiment: Binding of rhodamine-labeled UM206 to frozen sections of mouse kidney and small intestine and its blocking
Procedure: Specificity of the binding site was confirmed by prior incubation of the tissue sections with UM207 (1.10^−7 M) or recombinant Wnt3a (1.10^−8 M).
One-half of the hearts of the mice was embedded in paraffin and cut in 4 μm sections. The paraffin sections were rehydrated and washed in PBS. One section was stained with AZAN, allowing an accurate determination of the infarct size. To visualize the myofibroblasts in the infarct area, the sections were incubated with an antibody directed against α-smooth muscle actin (Sigma-Aldrich), followed by incubation with the peroxidase-conjugated secondary antibody (Vector laboratories). Nuclei were visualized by hematoxylin. Photos were taken with a Leica (CTR500, 63×/0.85) camera and analyzed with the Quantimet program (QWin/QGo). An examiner blinded to the groups of the animals obtained all measurements. For the experiments with Rhodamine-labeled UM206, frozen sections (4 μm) of mouse kidney and small intestine were used.

hFzd-4 = molecular target: T3, hFzd-4 (Homo sapiens, UniProt Q9ULV1); experiment: Receptor specificity: luciferase in HEK293 superTOPflash cells overexpressing hFzd-4; type: cell-based; conditions: FIG. 3, Panel F
T3 construct: expressed in transfected cells; host or cells: HEK293 superTOPflash (transient, Fugene6, pcDNA3.1/hygro)
T3 sequence (Q9ULV1 37-537): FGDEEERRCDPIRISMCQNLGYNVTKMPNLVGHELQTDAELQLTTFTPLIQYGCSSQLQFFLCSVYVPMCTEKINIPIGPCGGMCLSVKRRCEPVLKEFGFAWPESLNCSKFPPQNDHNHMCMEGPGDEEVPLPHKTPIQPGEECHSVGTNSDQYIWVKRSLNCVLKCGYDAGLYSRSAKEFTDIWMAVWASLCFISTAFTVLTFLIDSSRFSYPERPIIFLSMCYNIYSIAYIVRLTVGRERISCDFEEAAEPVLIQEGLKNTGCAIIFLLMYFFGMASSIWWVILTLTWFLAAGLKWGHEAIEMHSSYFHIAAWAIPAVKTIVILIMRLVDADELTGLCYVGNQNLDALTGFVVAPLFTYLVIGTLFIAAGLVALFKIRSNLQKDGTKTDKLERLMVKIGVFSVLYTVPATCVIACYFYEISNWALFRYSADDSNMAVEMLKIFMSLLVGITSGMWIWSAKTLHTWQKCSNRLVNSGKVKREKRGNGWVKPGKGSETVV
Procedure: In FIG. 3, Panel E, the efficacy of UM206 to block the Wnt3a-induced activation of luciferase activity in HEK293 superTOPflash cells transfected with different Fzds is shown.
as §7

Compound: CNVSSHGIDGCDL (listed as Homo sapiens) [peptide derived from the area of Wnt3a homologous to UM206]
antagonistic properties of UM206 analogues (canonical Wnt signaling; alanine scan and modifications, 1.10-9 M): potency was lower than that of UM206

Compound: CSCC[C@@H]1NC(=O)CNC(=O)[C@H](CCC(=O)O)NC(=O)[C@H](CO)NC(=O)[C@H]([C@@H](C)O)NC(=O)[C@H](CCCCN)NC(=O)[C@H](CC(N)=O)NC(=O)[C@@H](NC(C)=O)CSSC[C@@H](C(=O)N[C@@H](CCC(=O)O)C(=O)N[C@@H](CC(C)C)C(N)=O)NC(=O)CNC(=O)[C@H](CC(=O)O)NC1=O [UM206(S-S)] (Ac-CNKTSEGMDGCEL-NH2; disulfide 1-11)
activity on the frizzled receptor: antagonist or agonist (canonical Wnt signaling): potent agonist | agonist activity at frizzled-4 (hFzd-4): not for frizzled-4 or frizzled-5 | agonist activity at frizzled-2 (frizzled-2 (rFzd-2); FIG. 3, Panel F): specific agonist | agonist activity at frizzled-1 (frizzled-1 (rFzd-1); FIG. 3, Panel F): specific agonist

More lines, main results first:

block of Wnt3a-induced luciferase activity, rFzd-2 (frizzled-2 (rFzd-2)): blocked almost completely | block of Wnt3a-induced luciferase activity, rFzd-1 (frizzled-1 (rFzd-1)): blocked almost completely
Compound: CC(=O)NCC(=O)N[C@@H](CO)C(=O)N[C@@H](CS)C(=O)N[C@@H](CO)C(=O)N[C@@H](CC(C)C)C(=O)N[C@@H](CCCCN)C(=O)N[C@H](C(=O)N[C@@H](CS)C(=O)N[C@@H](Cc1c[nH]c2ccccc12)C(=O)N[C@@H](CC(C)C)C(=O)N[C@@H](CCC(N)=O)C(=O)N[C@@H](CC(C)C)C(=O)N[C@@H](C)C(=O)N[C@@H](CC(=O)O)C(N)=O)[C@@H](C)O [UM208, GSCSLKTCWLQLAD] (Ac-GSCSLKTCWLQLAD-NH2)
effect of the peptide by itself on luciferase activity (canonical Wnt signaling): none of the three peptides by itself could induce an increase in luciferase activity

effect of rhodamine attachment to Lys^3 on IC50 for blocking Wnt3a-induced luciferase expression (canonical Wnt signaling; HEK293 superTOPflash cells, not shown): did not affect its IC50 value
Compound: UM206-rhodamine: UM206 with rhodamine attached to Lys^3 (Ac-CNK(rhodamine)TSEGMDGCEL-NH2; cysteine pairing not given here; reading uncertain)
staining of tissue sections (Fzd-1 and -2; 1.10^−8 M, 15 minutes, two-foton microscopy): staining of tubular epithelium and panneth cells

block of Wnt3a-induced luciferase activity, rFzd-2 (frizzled-2 (rFzd-2)): blocked almost completely | block of Wnt3a-induced luciferase activity, rFzd-1 (frizzled-1 (rFzd-1)): blocked almost completely
Compound: CC[C@H](C)[C@H](NC(=O)CNC(C)=O)C(=O)N[C@@H](CCCCN)C(=O)N[C@@H](CCC(=O)O)C(=O)N[C@@H](CS)C(=O)N[C@@H](CCC(N)=O)C(=O)N[C@@H](Cc1ccc(O)cc1)C(=O)N[C@@H](CCC(N)=O)C(=O)N[C@@H](Cc1ccccc1)C(=O)N[C@@H](CCCNC(=N)N)C(=O)N[C@@H](Cc1c[nH]cn1)C(=O)N[C@@H](CCCNC(=N)N)C(=O)N[C@@H](CCCNC(=N)N)C(=O)N[C@@H](Cc1c[nH]c2ccccc12)C(=O)N[C@@H](CC(N)=O)C(=O)N[C@@H](CS)C(=O)N[C@@H](CO)C(=O)N[C@H](C(=O)N[C@H](C(=O)N[C@@H](CC(=O)O)C(N)=O)C(C)C)[C@@H](C)O [UM207] (Ac-GIKECQYQFRHRRWNCSTVD-NH2)
activity on the frizzled receptor: antagonist or agonist (canonical Wnt signaling): potent antagonist | effect of the peptide by itself on luciferase activity (canonical Wnt signaling): none of the three peptides by itself could induce an increase in luciferase activity | blocking of UM206-rhodamine binding by prior incubation (Fzd-1 and -2; UM206-rhodamine 1.10^−8 M, UM207 1.10^−7 M, Wnt3a 1.10^−8 M): completely abolished the binding of UM206-rhodamine
